Reference: patent US20230349922A1, “H2 Blockers Targeting Liver Macrophages for the Prevention and Treatment of Liver Disease and Cancer” (Université de Strasbourg, priority 2020, published 2023)

What was measured:
Format in all cases: cell-based, human
HRH2/cAMP/PKA axis = assay: PLS assessment upon perturbation of the HRH2/cAMP/PKA axis in Huh7.5.1dif cells; conditions: histamine 10 μM + nizatidine 10 μM, 48 hours
Experimental: Histamine, 8-CPT, cAMP and H89 Treatment. Huh7.5.1^dif cells were cultured in DMEM containing 1% FBS and 1% DMSO and incubated with histamine (10 μM) or histamine+nizatidine (10 μM) for 48 hours. Fresh medium containing histamine was replenished every 12 hours. For 8-CPT cAMP and H89, Huh7.5.1^dif cells cultured in DMEM 1% DMSO and 1% FBS were incubated with 8-CPT cAMP (100 μM), H89 (1 μM) or DMSO as a control for 48 hours. Fresh medium containing 8-CPT cAMP was replenished every 12 hours.
Transcriptomic Analysis and PLS Calculation. Gene expression profiling and the 32 gene PLS 32 profiling were performed using 250-500 ng total RNA by using either nCounter Digital Analyzer system (NanoString) or the HumanHT-12 beadarray (Illumina) for the time-course experiments. PLS gene expression was normalized according to 6 housekeeping gene expression using GenePattern genomic analysis toolkits (Hoshida, PLOS ONE, 2010, 5: e15543; Peck et al., Genome Biol., 2006, 7: R61; Reich et al., Nature Genet., 2006, 38: 500-501). Induction or suppression of PLS risk signature was determined as previously reported by using Gene Set Enrichment Analysis (GSEA), implemented in GenePattern genomic analysis toolkits (Hoshida, PLOS ONE, 2010, 5: e15543; Peck et al., Genome Biol., 2006, 7: R61; Reich et al., Nature Genet., 2006, 38: 500-501). PLS was always determined by using CTRL cells as references. Results are presented as simplified heatmaps showing the classification of PLS global status as poor or good prognosis and the significance of induction/suppression of PLS genes (log 10 of false discovery rate (FDR) values). For each experiment, heatmaps show: in the upper part: the classification of PLS global status as poor (orange) or good (green) prognosis, and in the bottom part: the significance of induction (red) or suppression (blue) of PLS poor- or good-prognosis genes. Global status corresponds to the difference between low risk- and high risk-gene expression. The statistic tests, normalized enrichment score (NES) and FDR values are provided for each PLS experiment (poor- and good-prognosis genes variation and global status) in the Source Data file.

liver macrophages = assay: scRNA-Seq of CD45+ leucocytes from patient liver tissue treated with nizatidine
Experimental: Single-Cell RNA-Seq Analyses of Patient Liver Tissues. Human cells were dissociated from HCC patient liver tissues. Fresh or cryopreserved tissues were minced into 2 to 3 mm pieces and incubated with collagenase (0.5 mg/mL) for 30 minutes at 37° C. Digested tissues were filtered through a sterile nylon mesh to separate the dispersed cells from tissue fragments and washed with Hanks' Balanced Salt Solution (HBSS). Cells were then centrifuged at 600×g for 5 minutes at 4° C. Leucocytes CD45^+ cells were separated from other cell types by flow cytometry using SH800 cell sorter (Sony). Briefly, 500,000 cells per condition were stained with human CD45 specific antibody. Living cells were selected using Zombie green staining according to manufacturer's instructions. Data were acquired using the Sony Cell Sorter Software. Cells were then cultured in MammoCultTM medium and treated with nizatidine 50 μM or DMSO vehicle control. Two days after treatment, single cells were sorted into 384 well cell capture plates (Single Cell Discovery, website: www.scdiscoveries.com) using SH800 cell sorter (Sony). The plates contain mineral oil and droplets of poly-A primers, containing a cell-specific barcode and a unique molecular identifier (UMI), enabling to distinguish the well-specific (and cell-specific) mRNA molecules. scRNA-Seq was performed by Single-Cell Discoveries B.V. using SORT-seq protocol (Muraro et al., Pancreas Cell Syst., 2016, 3: 385-394, e3). Single Cell RNA-Seq Profiling of Human Cells. scRNA-Seq analysis of patient-derived liver tissue was assessed using R version 3.5.3 with package “[…]” for clusterization, cluster analysis and DEG calculation, as previously described (Aizarani et al., Nature; 2019, 572: 199-204).

[1] = tested on: M1-polarized THP-1 macrophages; assay: Cytokine expression by qRT-PCR in M1-polarized THP-1 macrophages
Experimental: Real-Time qRT-PCR. cDNAs were synthetized by reverse transcription using SuperScript III First-Strand Synthesis SuperMix (Life Technologies). Expression of mouse IL6, TNFα and IL1β was analyzed by quantitative real-time PCR using TaqMan Gene Expression Assays (Thermo Fisher Scientific) on the CFX96 Touch Real-Time PCR Detection System PCR system (Bio-Rad). Expression of human CCL2 and TGF was analyzed using iTaq™ Universal SYBR® Green Supermix (Bio-Rad). The 2^−ΔCT method was used for relative quantification (Schmittgen and Livak, Nature Protoc., 2008, 3: 1101-1108) of mRNA with normalization to 18S. The 2^−ΔCT method was used for relative quantification (Schmittgen and Livak, Nature Protoc., 2008, 3: 1101-1108) of mRNA with normalization to GAPDH mRNA.
M1 Macrophage Polarization and HRH2 Blocker Treatment. THP1 cells were cultured in RPMI 1640 Medium with GlutaMAX™-I supplement and HEPES and supplemented with 10% FBS and gentamycin (0.05 mg/mL). M1 macrophage polarization from THP-1 was performed as previously described (Yeung et al., J. Hepatol., 2015, 62: 607-616). To generate MO THP-1 macrophages, THP1 cells were treated with PMA 320 nM for 24 hours. To generate M1-polarized THP-1 macrophages, THP-1 cells were treated with […] then with 100 ng/ml LPS and 20 ng/ml IFNγ for 18 hours. […]

[2] = tested on: patient-derived HCC tumor spheroids; assay: Cell viability (ATP, CellTiter-Glo) of patient-derived HCC tumorspheroids; conditions: nizatidine 50 μM, 4 days, ATP levels, compared to DMSO; 6 patients
Experimental: Patient-Derived HCC Tumor Spheroids. Tumorspheroids were generated from liver tissues from HCC patients undergoing surgical resection and dissociated using the Human Tumor Dissociation Kit. Total cell populations including epithelical (i.e., cancer cells/hepatocytes) and NPCs were used to generate multicellular tumorspheroids in Corning® 96-well Black/Clear Bottom Low Flange Ultra-Low Attachment Microplates (Corning). After 48 hours, HCC-derived spheroids were treated with nizatidine 50 μM, sorafenib 10 μM or DMSO vehicle control for 4 days. Fresh medium containing DMSO or drugs was added every day. Cell viability was assessed using CellTiter-Glo® (Luminescent Cell Viability Assay), according to manufacturer's instruction.

[3] = GSEA, nizatidine-treated vs CTRL macrophages
[4] = gene-level analysis in macrophages
[5] = nizatidine 50 μM, two days, scRNA-Seq
[6] = activated THP1-derived macrophages

CNC(=C[N+](=O)[O-])NCCSCc1csc(CN(C)C)n1 [Nizatidine, N-[2-[[[2-[(dimethylamino)methyl]-4-thizaolyl]methyl]thio]ethyl]-N′-methyl-2-nitro-1,1-ethene-diamine]
histamine-induced PLS poor-prognosis status (HRH2/cAMP/PKA axis): reversal | IFNγ response and antigen processing and presentation (liver macrophages; [3]): augmenting IFNγ response and antigen processing and presentation | c-Myc pathway expression (liver macrophages; [3]): strong suppression of the c-Myc pathway expression | immunoregulatory macrophage (M2) signature (liver macrophages; [3]): only partially induces the immunoregulatory macrophage (M2) signature | pro-inflammatory and pro-fibrogenic responses (TNFα, IL2 and IL6 signaling pathways) (liver macrophages; [3]): suppresses pro-inflammatory and pro-fibrogenic responses | pro-inflammatory macrophage (M1) signature (liver macrophages; [3]): suppresses the pro-inflammatory macrophage (M1) signature | major histocompatibility complex (MHC) molecules expression (liver macrophages; [4]): increase in major histocompatibility complex (MHC) molecules expression | neutrophil/monocyte chemoattractant and pro-inflammatory cytokine expression (CXCL5, CCL2, CCL5) (liver macrophages; [4]): decrease in neutrophil/monocyte chemoattractant and pro-inflammatory cytokine expression | pro-fibrotic/tumorigenic soluble factor expression (IL6, IL1b, PDGF, MMP9, TNFα) (liver macrophages; [4]): suppression of pro-fibrotic/tumorigenic soluble factor expression | Siglec-10 expression in macrophages (liver macrophages; [5]): decreases expression | macrophage CLEC5A expression (liver macrophages; [5]): decreased macrophage CLEC5A expression | pro-inflammatory cytokine expression ([1]; THP1-derived M1-polarized macrophages, nizatidine 48 hours): direct effect | IL6 expression [1, 6]: decreased | TNFα expression [1, 6]: decreased | tumor spheroid viability [2]: significant decrease of tumor spheroid viability in 4 out of 6 patients
